From PubChem BioAssay (NCI)
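Here, GI50 denotes the concentration required for 50% inhibition of growth. TGI denotes the concentration required for complete inhibition of growth.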

Assays:
Assay in all cases: NCI-60 cell line screen, 384-well format
[1] = tested on: 786-0 renal
[2] = tested on: A549 NSCLC
[3] = tested on: ACHN renal
[4] = tested on: BT-549 breast
[5] = tested on: CCRF-CEM leukemia
[6] = tested on: COLO 205 colon
[7] = tested on: DU-145 prostate
[8] = tested on: EKVX NSCLC
[9] = tested on: HCC-2998 colon
[10] = tested on: HCT-116 colon
[11] = tested on: HCT-15 colon
[12] = tested on: HOP-62 NSCLC
[13] = tested on: HOP-92 NSCLC
[14] = tested on: HS 578T breast
[15] = tested on: HT29 colon
[16] = tested on: IGROV1 ovarian
[17] = tested on: K-562 leukemia
[18] = tested on: LOX IMVI melanoma
[19] = tested on: MCF7 breast
[20] = tested on: MDA-MB-231 breast
[21] = tested on: MDA-MB-468 breast
[22] = tested on: NCI-H226 lung
[23] = tested on: NCI-H23 lung
[24] = tested on: NCI-H322M lung
[25] = tested on: NCI-H522 lung
[26] = tested on: NCI/ADR-RES ovarian
[27] = tested on: OVCAR-4 ovarian
[28] = tested on: OVCAR-5 ovarian
[29] = tested on: OVCAR-8 ovarian
[30] = tested on: PC-3 prostate
[31] = tested on: RXF 393 renal
[32] = tested on: SF-268 CNS
[33] = tested on: SF-295 CNS
[34] = tested on: SK-MEL-2 melanoma
[35] = tested on: SK-MEL-28 melanoma
[36] = tested on: SK-MEL-5 melanoma
[37] = tested on: SK-OV-3 ovarian
[38] = tested on: SN12C renal
[39] = tested on: SNB-19 CNS
[40] = tested on: SNB-75 CNS
[41] = tested on: SR leukemia
[42] = tested on: SW-620 colon
[43] = tested on: TK-10 renal
[44] = tested on: U251 glioblastoma
[45] = tested on: UACC-257 melanoma
[46] = tested on: UACC-62 melanoma
[47] = tested on: UO-31 renal

## C[C@@H]1Cc2c(ccc3[nH]ncc23)[C@@H](c2ccc(NC3CN(CCCF)C3)cn2)N1CC(F)(F)F
[1]
  GI50: 15.2 µM
  TGI: 28.5 µM
[2]
  GI50: 27.5 µM
  TGI: 77.6 µM
[3]
  GI50: 17.5 µM
  TGI: 31.5 µM
[4]
  GI50: 13.1 µM
  TGI: 25.9 µM
[5]
  GI50: 5.58 µM
  TGI: 17.4 µM
[6]
  GI50: 16.1 µM
  TGI: 29.7 µM
[7]
  GI50: 18.5 µM
  TGI: 37.7 µM
[8]
  GI50: 13.8 µM
  TGI: 27.7 µM
[9]
  GI50: 13.8 µM
  TGI: 26.8 µM
[10]
  GI50: 13.3 µM
  TGI: 26.2 µM
[11]
  GI50: 16.4 µM
  TGI: 30.3 µM
[12]
  GI50: 17.6 µM
  TGI: 31.4 µM
[13]
  GI50: 13 µM
  TGI: 25.7 µM
[14]
  GI50: 13 µM
  TGI: 25.7 µM
[15]
  GI50: 14.6 µM
  TGI: 27.9 µM
[16]
  GI50: 14.8 µM
  TGI: 30.1 µM
[17]
  GI50: 14.2 µM
  TGI: 27.5 µM
[18]
  GI50: 15.8 µM
  TGI: 29.3 µM
[19]
  GI50: < 0.01 µM
  TGI: 13.5 µM
[20]
  GI50: 14.2 µM
  TGI: 28.7 µM
[21]
  GI50: 7.75 µM
  TGI: 20.1 µM
[22]
  GI50: 17.4 µM
  TGI: 53.3 µM
[23]
  GI50: 11.7 µM
  TGI: 24.3 µM
[24]
  GI50: 16.4 µM
  TGI: 30.9 µM
[25]
  GI50: 11.9 µM
  TGI: 24.3 µM
[26]
  GI50: 23.5 µM
  TGI: 62.6 µM
[27]
  GI50: 19.3 µM
  TGI: 35.7 µM
[28]
  GI50: 16 µM
  TGI: 30.7 µM
[29]
  GI50: 15.4 µM
  TGI: 28.9 µM
[30]
  GI50: 14.9 µM
  TGI: 28.6 µM
[31]
  GI50: 4.54 µM
  TGI: 16.1 µM
[32]
  GI50: 16.5 µM
  TGI: 30.3 µM
[33]
  GI50: 17.7 µM
  TGI: 31.6 µM
[34]
  GI50: 15.8 µM
  TGI: 29.2 µM
[35]
  GI50: 16.1 µM
  TGI: 29.7 µM
[36]
  GI50: 14.8 µM
  TGI: 28 µM
[37]
  GI50: 17.5 µM
  TGI: 31.4 µM
[38]
  GI50: 15.9 µM
  TGI: 30.5 µM
[39]
  GI50: 23.1 µM
  TGI: 49.8 µM
[40]
  GI50: 17.6 µM
  TGI: 31.4 µM
[41]
  GI50: 2.18 µM
  TGI: 4.92 µM
[42]
  GI50: 16.6 µM
  TGI: 30.4 µM
[43]
  GI50: 16.6 µM
  TGI: 30.5 µM
[44]
  GI50: 15 µM
  TGI: 28.4 µM
[45]
  GI50: 13.9 µM
  TGI: 26.9 µM
[46]
  GI50: 13.8 µM
  TGI: 26.8 µM
[47]
  GI50: 17.6 µM
  TGI: 31.5 µM
